Measured values from paper PMC10180488, “Novel Derivatives of Eugenol as a New Class of PPARγ Agonists in Treating Inflammation: Design, Synthesis, SAR Analysis and In Vitro Anti-Inflammatory Activity” (Molecules, 2023).
Where “and” joins values, the source holds several entries; their conditions need not be identical. Identical values can stand only once.

Columns and labels:
human PPARγ- LBD = target: T1, human PPARγ- LBD (Homo sapiens, UniProt P37231); assay: Lanthascreen TR-FRET PPARγ competitive binding assay; settings: for Raw Data / Raw Data - Background: TR-FRET
T1 construct: a mixture of a human PPARγ- LBD labelled with glutathione S-transferase (GST)
T1 sequence (P37231 238-503 limits assumed): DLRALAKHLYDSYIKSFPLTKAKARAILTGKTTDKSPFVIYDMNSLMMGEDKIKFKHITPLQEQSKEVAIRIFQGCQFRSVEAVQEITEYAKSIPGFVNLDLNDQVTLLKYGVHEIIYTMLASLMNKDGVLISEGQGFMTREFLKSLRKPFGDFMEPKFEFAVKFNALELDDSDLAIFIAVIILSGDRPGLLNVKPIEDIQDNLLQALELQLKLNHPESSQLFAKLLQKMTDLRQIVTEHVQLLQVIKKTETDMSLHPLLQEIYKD
Experimental: Using the Lanthasreen TR-FRET assay, the synthesized compounds were first preliminary tested for the PPARγ binding affinity. […] A chemical under test displaces the tracer from PPAR-LBD, which lowers the TR-FRET ratio and decreases the FRET signal Figure 8 [33].
A multimode low-volume proxy plate reader was used to read the plates after one hour of incubation. Then, a mixture of a human PPARγ- LBD labelled with glutathione S-transferase (GST), a fluorescent small pan-PPAR ligand (FluormoneTM Pan-PPAR Green), and terbium-labeled anti-GST antibody was added.

egg albumin = egg albumin (Gallus gallus, UniProt P01012); assay: Albumin denaturation assay; assay type: biochemical, hen; settings: mean ± SD (n = 3), read-out: Percentage inhibition of denaturation of albumin
Experimental: Inflammation is accompanied by protein denaturation. Tissue protein denaturation is a well-established cause of Inflammatory illnesses. Inflammatory disorders including rheumatoid arthritis, diabetes, and cancer have been linked to the denaturation of proteins. The ability of a substance to stop proteins from becoming denaturized has a role in the prevention of inflammatory disorders. […] Denaturation of proteins is accomplished by keeping the reaction mixture in a water bath at 70 °C for […].
Minor modifications were made to Mizushima and Kobayashi’s and Sakat et al. methodologies. The reaction mixture containing 0.2 mL of egg albumin (from a fresh hen’s egg) is mixed with 2.8 mL of phosphate-buffered saline (PBS, pH 6.4) and 2 mL of synthesized compounds in varying concentrations. The mixture was then heated at 70 °C for 5 min after being incubated at 37 °C for approximately 15–20 min. After cooling, their absorbance was measured at 660 nm spectrometrically. Three duplicates of the experiment were carried out. […] Percentage inhibition = (OD control − OD sample/OD control) × 100

[1] = tested on: human red blood cells (HRBC); assay: HRBC membrane stabilization method; settings: for HRBC membrane stabilization (percentage protection against HRBC lysis): mean ± SD (n = 3); for IC50: Homo sapiens, Erythrocyte, read-out: IC50 Values, HRBC membrane stabilization method
Experimental: The principle of this procedure is to stabilize the membrane of human red blood cells by hypotonic membrane lysis. […] Lysosomal enzyme levels typically decrease as the HRBC membrane is stabilized.
The packed cells in this blood solution were separated after centrifugation at 3000 rpm [41]. The packed cells were cleaned using an isosaline solution, and then, isosaline was used to prepare a 10% v/v suspension. This HRBC suspension was employed to estimate its anti-inflammatory properties. Different concentrations of the synthesized compounds and the reference standard were each combined with 1 mL of phosphate buffer (pH 7.4), 2 mL of hyposaline, and 0.5 mL of HRBC solution. A total of 2.0 mL of distilled water was utilized as the control. The assay mixtures were all centrifuged at 3000 rpm after 30 min of incubation at 37°C. The following formula was used to determine the percentage of stabilized HRBC membranes. Percentage protection= 100 − (OD sample/OD control) × 100

Chain of egg albumin (P01012 2-386): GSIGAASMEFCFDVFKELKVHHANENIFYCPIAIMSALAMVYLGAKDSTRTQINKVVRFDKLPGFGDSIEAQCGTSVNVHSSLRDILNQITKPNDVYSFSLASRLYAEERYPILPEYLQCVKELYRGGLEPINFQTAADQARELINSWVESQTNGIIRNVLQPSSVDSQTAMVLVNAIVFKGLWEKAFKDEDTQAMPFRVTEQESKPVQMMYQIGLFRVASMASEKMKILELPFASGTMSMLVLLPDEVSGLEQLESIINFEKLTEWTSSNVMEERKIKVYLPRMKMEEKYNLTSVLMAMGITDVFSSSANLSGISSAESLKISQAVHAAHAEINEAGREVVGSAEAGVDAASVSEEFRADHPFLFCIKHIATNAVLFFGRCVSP

## C=CCc1ccc(OCC(=O)Nc2cccc(C(F)(F)F)c2)c(OC)c1 [Compound 1d, 2-(4-Allyl-2-methoxyphenoxy)-N-[(3-trifluoromethyl)phenyl]acetamide]
Human PPARγ- LBD; Lanthascreen TR-FRET competitive binding
  IC50: 6.47 µM
Human PPARγ- LBD; 0.0000512 µM
  Raw Data: 2.02 RLU
  Raw Data - Background: 1.876 RLU
Human PPARγ- LBD; 0.000256 µM
  Raw Data: 2.04 RLU
  Raw Data - Background: 1.881 RLU
Human PPARγ- LBD; 0.00128 µM
  Raw Data: 2 RLU
  Raw Data - Background: 1.79 RLU
Human PPARγ- LBD; 0.0064 µM
  Raw Data: 2.061 RLU
  Raw Data - Background: 1.836 RLU
Human PPARγ- LBD; 0.032 µM
  Raw Data: 1.99 RLU
  Raw Data - Background: 1.875 RLU
Human PPARγ- LBD; 0.16 µM
  Raw Data: 1.945 RLU
  Raw Data - Background: 1.78 RLU
Human PPARγ- LBD; 0.8 µM
  Raw Data: 2.018 RLU
  Raw Data - Background: 1.89 RLU
Human PPARγ- LBD; 4 µM
  Raw Data: 1.542 RLU
  Raw Data - Background: 1.307 RLU
Human PPARγ- LBD; 20 µM
  Raw Data: 0.593 RLU
  Raw Data - Background: 0.497 RLU
Human PPARγ- LBD; 100 µM
  Raw Data: 0.6527 RLU
  Raw Data - Background: 0.4876 RLU
Egg albumin
  inhibition at 6.25 µM: 4.21 ± 0.37%
  inhibition at 12.5 µM: 8.79 ± 0.32%
  inhibition at 25 µM: 14 ± 0.31%
  inhibition at 50 µM: 18.8 ± 0.39%
  inhibition at 100 µM: 32.46 ± 0.32%
  inhibition at 200 µM: 38.49 ± 0.37%
  inhibition at 400 µM: 49.09 ± 0.18%
[1]; 6.25 µM
  HRBC membrane stabilization (percentage protection against HRBC lysis): 8.85 ± 0.36%
[1]; 12.5 µM
  HRBC membrane stabilization (percentage protection against HRBC lysis): 17.77 ± 0.46%
[1]; 25 µM
  HRBC membrane stabilization (percentage protection against HRBC lysis): 28.72 ± 0.46%
[1]; 50 µM
  HRBC membrane stabilization (percentage protection against HRBC lysis): 34.74 ± 0.56%
[1]; 100 µM
  HRBC membrane stabilization (percentage protection against HRBC lysis): 45.51 ± 0.28%
[1]; 200 µM
  HRBC membrane stabilization (percentage protection against HRBC lysis): 56.45 ± 0.31%
[1]; 400 µM
  HRBC membrane stabilization (percentage protection against HRBC lysis): 67.40 ± 0.28%
[1]
  IC50: 66.3 µM

## O=C(O)Cc1ccccc1Nc1c(Cl)cccc1Cl [Standard Diclofenac, Diclofenac, reference compound]
Egg albumin
  inhibition at 6.25 µM: 10.2 ± 0.55%
  inhibition at 12.5 µM: 15.3 ± 0.43%
  inhibition at 25 µM: 28.2 ± 0.61%
  inhibition at 50 µM: 38.93 ± 0.37%
  inhibition at 100 µM: 49.5 ± 0.51%
  inhibition at 200 µM: 60.29 ± 0.36%
  inhibition at 400 µM: 68.54 ± 0.43%
[1]; 6.25 µM
  HRBC membrane stabilization (percentage protection against HRBC lysis): 15.99 ± 0.64%
[1]; 12.5 µM
  HRBC membrane stabilization (percentage protection against HRBC lysis): 26.93 ± 0.55%
[1]; 25 µM
  HRBC membrane stabilization (percentage protection against HRBC lysis): 43.54 ± 0.48%
[1]; 50 µM
  HRBC membrane stabilization (percentage protection against HRBC lysis): 52.58 ± 0.48%
[1]; 100 µM
  HRBC membrane stabilization (percentage protection against HRBC lysis): 62.30 ± 0.59%
[1]; 200 µM
  HRBC membrane stabilization (percentage protection against HRBC lysis): 76.87 ± 0.64%
[1]; 400 µM
  HRBC membrane stabilization (percentage protection against HRBC lysis): 90.77 ± 0.36%
[1]; 400 µM, listed as diclofenac sodium
  HRBC membrane stabilization (percentage protection against HRBC lysis): 90.77% and 90%
[1]
  IC50: 48.1 µM
